In US20260060936A1, “INDOLIUM-BASED STABILIZERS OF HYDROPHOBIC DRUGS” (TECHNION RESEARCH & DEVELOPMENT FOUNDATION LTD., priority 2022, published 2026):
Values belong to the compound of their own block, whether it stands above or below them.

Experiments:
[1] = DLS size and PDI of drug nanoparticles with dye stabilizers (Study 1); type: physicochemical; details: for nanoparticle formation with IR783: stabilizer IR783; for nanoparticle formation with R595: stabilizer R595
Procedure: For comparison with other stabilizers, the […] was replaced with the following excipients: Pluronic F-127, sodium lauryl sulfate (SDS), carboxymethyl cellulose (CMC), α-cyclodextrin (αCD), β-cyclodextrin (βCD), βCD-SO3, and human serum albumin (HSA). All compounds were dissolved as 10 mg/ml in DDW. Further comparison of […] with IR783/IR820 based nanoparticles was also performed in DDW. The solutions were centrifuged (30,000 g, 15 min, room temperature) and the pellet was resuspended in 1 ml of DDW. In the automation process, using the Andrew Alliance pipetting robot (Waters Corp, MA), the nanoparticles were purified using a PD-10 desalting column (Cytiva, Marlborough, MA) and 1.7 ml of eluent was collected after 2.5 ml void volume (defined by the vendor). Characterization of nanoparticles. Dynamic light scattering (DLS) measurements were conducted using a Zetasizer Nano ZS (Malvern Panalytical, Malvern, UK).

[2] = system: 3T3 cells; assay: Image-based cell counting toxicity assay; design: species or system mouse; details: free drug; attributed to >5% DMSO in the medium
Procedure: Polymers toxicity assay in 2D. 3T3 Cells were seeded in 96 well plates at a 30% confluency (6000 cells per well) and allowed to adhere for 24 h. Polymers were purified with Sephadex G25 columns, nanoparticles were suspended in DDW and added to the wells. Untreated cells (control) were used to establish 100% viability. The effect on cell viability was measured with MTT (5 mg/ml, Glentham Life Sciences, UK).
In-vitro toxicity and anti-tumor efficacy experiments. First, we tested the three leading copolymers for in-vitro cytotoxicity, using mouse embryonic fibroblast cells (3T3 cells) as a non-cancerous model (FIG. 12). The copolymers were purified with Sephadex G25 columns and were serially diluted in a 96-well plate seeded with the cells. We used two separate viability assays: MTT and an image-based cell counting method using automated microscopy. In the MTT assay we found no reduction in cell viability over control, even in the highest concentration of polymers (FIG. 12, upper and middle panels). […] The cells morphology was not changed following incubation with the polymers, though at higher concentrations intracellular dark vesicles could be observed, indicating cellular uptake into the endo-lysosomal pathway (FIG. 13).

[3] = Long-term stability and shelf-life of nanoparticles (size and PDI over time); type: physicochemical; details: trametinib nanoparticles with different dyes; within the first 24 hours
Procedure: Manual preparation of nanoparticles. 100 μL of drugs dissolved in DMSO (10 mg/ml) were added under slight vortexing to 0.5 ml of 0.1 M sodium bicarbonate buffer containing 1.6 mg/ml R595 (100 μl from 10 mg/ml stock solution in 0.5 ml). For comparison with other stabilizers, the R595 was replaced with the following excipients: Pluronic F-127, sodium lauryl sulfate (SDS), carboxymethyl cellulose (CMC), α-cyclodextrin (αCD), β-cyclodextrin (βCD), βCD-SO3, and human serum albumin (HSA). All compounds were dissolved as 10 mg/ml in DDW. Further comparison of R595 with IR783/IR820 based nanoparticles was also performed in DDW. The solutions were centrifuged (30,000 g, 15 min, room temperature) and the pellet was resuspended in 1 ml of DDW. In the automation process, using the Andrew Alliance pipetting robot (Waters Corp, MA), the nanoparticles were purified using a PD-10 desalting column (Cytiva, Marlborough, MA) and 1.7 ml of eluent was collected after 2.5 ml void volume (defined by the vendor).
Characterization of nanoparticles. Dynamic light scattering (DLS) measurements were conducted using a Zetasizer Nano ZS (Malvern Panalytical, Malvern, UK).

[4] = system: KPL cells; details: mouse, in vivo, ip
Procedure: KRAS driven lung tumor studies. Six-weeks-old female C57BL/6J mice strain were purchased from Envigo RMS. Inducing tumors in the lung was done by injecting 10^5 KPL cells suspended in 200 μl of PBS intravenously (IV) via the tail vein. […] For efficacy studies, treatments were administered biweekly for ten weeks. For safety studies, immunohistochemistry (H&E) was done on treated mice. Animals were euthanized using CO2 inhalation. Mice were housed in air-filtered laminar flow cabinets with a 12-hr light/dark cycle and food and water ad libitum.

[5] = DLS size, PDI and stability of copolymer-stabilized nanoparticles (Study 2); type: physicochemical; details: nilotinib nanoparticles
Procedure: Preparation of nanoparticles. Drugs dissolved in DMSO (Carlo Erba, 10 mg/ml) were added under slight vortex to aqueous dye solution, buffered with 0.1M sodium bicarbonate. IR783 (Sigma-Aldrich) and the polymers' concentrations were 2 mg/ml. […] If the particles were cleaned in centrifuge, the solution was sonicated using Sonics' Vibra-cell ultrasonic processor (20% amplitude, 3 seconds pulses) until homogenous.
Characterization of nanoparticles. DLS measurements were conducted using a Zetasizer Nano ZS (Malvern Panalytical, Malvern, UK).

[6] = system: KPL; assay: Cell viability assay in 2D (anti-cancer drug-screen); type: cell-based, mice
Procedure: (§1) Cell viability assay in 2D. Cells were seeded in 96 well plates at a 30% confluency and allowed to adhere for 24 h. All drugs were dissolved in DMSO. Nanoparticles were suspended in DDW and were added to the wells after dilution with growth medium. Untreated cells (control) were used to establish 100% viability. The effect on cell viability was measured both with Promega® CellTiter-Glo® (CTG) and with images taken by the Lionheart followed by a cell count feature provided by the vendor (BioTeK).

[7] = system: HCT116; assay: as above; type: cell-based, human
Procedure: as §1

SMILES: CNC(=O)c1ccc(N2C(=S)N(c3ccc(C#N)c(C(F)(F)F)c3)C(=O)C2(C)C)cc1F [Free enzalutamide, enzalutamide]
- toxicity in 3T3 cells [2]: slight toxicity in high concentrations

SMILES: CC1(C)C(=CC=C2CCCC(C=CC3=[N+](CCCCS(=O)(=O)[O-])c4ccc5ccccc5c4C3(C)C)=C2Cl)N(CCCCS(=O)(=O)[O-])c2ccc3ccccc3c21.[Na+] [IR820]
- stabilizer comparison (size and PDI) [3]: better stabilizer than IR783

SMILES: CC(=O)Nc1cccc(-n2c(=O)n(C3CC3)c(=O)c3c(Nc4ccc(I)cc4F)n(C)c(=O)c(C)c32)c1 [trametinib]
- toxicity as observed with weight changes [4]: no dose limiting toxicities

SMILES: CC(C)C[C@H](NC(=O)[C@H](CCc1ccccc1)NC(=O)CN1CCOCC1)C(=O)N[C@@H](Cc1ccccc1)C(=O)N[C@@H](CC(C)C)C(=O)[C@@]1(C)CO1 [carfilzomib]
- potency in cell viability drug-screen with 7 drugs [6]: highest potency
- potency in cell viability drug-screen with 7 drugs [7]: highest potency

The next lines start with the values.

- nanoparticle formation with IR783 [1]: failed to form nanoparticles
- nanoparticle formation with R595 [1]: formed stable nanoparticles
SMILES: COc1cc2nccc(Oc3ccc(NC(=O)NC4CC4)c(Cl)c3)c2cc1C(N)=O [lenvatinib]

- time to aggregation [5]: ≤ 24 h
SMILES: CC1(C)C(=CC=C2CCCC(C=CC3=[N+](CCCCS(=O)(=O)[O-])c4ccccc4C3(C)C)=C2Cl)N(CCCCS(=O)(=O)[O-])c2ccccc21.[Na+] [IR783]

- nanoparticle formation with IR783 [1]: failed to form nanoparticles
- nanoparticle formation with R595 [1]: formed stable nanoparticles
SMILES: CCc1c2c(nc3ccc(OC(=O)N4CCC(N5CCCCC5)CC4)cc13)-c1cc3c(c(=O)n1C2)COC(=O)[C@]3(O)CC [irinotecan]
